Reference: EP0719267B1, “SECOND MESSENGER CELL SIGNALING INHIBITORS” (CELL THERAPEUTICS, INC., priority 1993, dated 1994)
pIC50: −log10 of the molar value.

Key:
[1] = system: murine cytotoxic T-cell line, CT6; assay: Cytokine-induced proliferation of the cytotoxic T-cell line CT6 / CT-6.1; format: cell-based; conditions: added one hour prior to IL-2, thymidine at 48 hours
Protocol: Another assay in this example was used to determine inhibitive activity of the inventive compounds on direct IL-2-induced proliferation in a murine cytotoxic T-cell line, CT6. The CT6 cell line is an IL-2-dependent cell line. IL-2 was removed from the medium for 24 hours prior to stimulation. […] 49, 50, 45, 43 or 41 were added at various concentrations. The cells were stimulated with IL-2 and amount of tritiated thymidine dye incorporated was measured 48 hours later.
In another related assay, inhibitory effects on CT6 cell proliferation is examined. CT6 cells are a murine IL-2 dependent, cytotoxic T cell line that proliferate in response to murine IL-2 (15 U/ml).
CT-6.1 cells were starved overnight and stimulated with IL-2 (20 ng/ml). Twenty hours later, cells were labeled for 4 hours with ^3H-TdR and counted by liquid scintillation.
CT6.1 cells were cultured with IL-2 with or without the addition of inventive compound no. 45 (2 µM) and viable cells counted for up to 8 days. On day 4, two cultures previously incubated with compound no. 45, were washed and recultured with fresh IL-2 with or without compound no. 45 (2 µM).
Procedurally, CT-6.1 cells were starved overnight and stimulated with either IL-2 (20 ng/ml), IL-4 (50 ng/ml) or IL-7 (25 ng/ml). ^3H-TdR was added at 20 hours, cells were harvested 4 hours later, and the incorporation of ^3H-TdR was determined.

[2] = system: THP-1 cell adhesion to IL-1-activated HUVEC; assay: THP-1 cell adhesion to activated HUVEC; format: cell-based, human; conditions: IL-1 (10 ng/ml), 8 hours
Protocol: This example illustrates inhibitive activity of compounds nos. 50 and 57 on THP-1 cell adhesion to IL-1-activated HUVEC. In an investigative assay, HUVEC were stimulated with IL-1 (10 ng/ml), both in the absence and presence of varying concentrations of drugs for 8 hours in a 96-well microtiter plate. In the wellplate, human monocytic leukemia cell line THP-1 cells were added at 50,000 cells per well. The THP-1 cells were pre-incubated with BCECF, a fluorescence dye that can be used to measure cell number using a fluorescence plate reader. After 10 minutes at 37 °C, the microtiter plate was inverted and spun at 900 rpm. The remaining adhering THP-1 cells were then analyzed.
Inventive compound no. […] HUVEC were stimulated with 20 ng/ml IL-1β or 15 ng/ml TNFα for 6 hours. Fluorescence labeled (BCECF-AM) THP-1 cells were allowed to adhere to the HUVEC for 20 minutes, washed once and the amount of fluorescence remaining analyzed on a fluorescence plate reader. The results, reported in figures 62A and 62B (TNFα or IL-1β, respectively), show inhibition of THP-1 adhesion to HUVEC.
Figures 72A and 72B illustrate that inventive compound no. 58 inhibited THP-1 cell adhesion to either TNF or IL-1-stimulated HUVEC, respectively. Procedurally, HUVEC were stimulated with TNF or IL-1 for 8 hours and THP-1 cells added for 20 minutes. The HUVEC were then washed and analyzed for adherence. Inventive compound no. 58 inhibited adhesion of THP-1 cells to HUVEC with an IC50 of approximately 1 µM for both TNF and IL-1.

[3] = system: Balb/3T3 cells; assay: PDGF-induced proliferation of Balb/3T3 cells; format: cell-based, murine
Protocol: Balb/3T3 cells respond vigorously to PDGF stimulation, and are useful in vitro models for further study of PDGF-induced proliferation. Disregulated PDGF-proliferative response has been linked to a variety of diseases, including, e.g., restenosis, atherosclerosis, fibrosis, and tumor cell angiogenesis. Cells were plated in low serum-containing medium for 24 hours prior to stimulation with various concentrations of inventive compound no. 45. PDGF-BB was added at constant 10 µM concentrations. Tritiated thymidine was added and cells harvested for scintillation counting 24 hours later. Figure 15 illustrates a dose response curve from this assay, including an IC50 value of approximately 0.08 µM, exemplifying inhibitory activity of the tested compound.
In another investigation similar to the Balb/3T3 proliferation assay of Example 32, IC50 and ID50 values for inventive compounds nos. 70, 45, 59 and 58 were determined. LD50 values were determined using a cytotoxicity assay, as in Example 32. In these assays, Balb/3T3 cells, stimulated with PDGF and treated with one of the above inventive compounds in a manner identical to the tritiated thymidine procedure above, were incubated instead with a viable dye BCECF, a fluorescent dye. Fluorescence was measured using a fluorescent plate reader. […] Figure 17 illustrates assay results by comparing […] value against LD50 values for the inventive compounds tested. Most compounds tested were non-cytotoxic yet were significant inhibitors of proliferation.
Inventive compounds nos. 77,7 and 78 were added at various concentrations one hour prior to PDGF stimulation. PDGF-BB was added at a constant 10 µM concentrations along with tritiated thymidine. The cells were allowed to incubate for one day, following addition of PDGF and tritiated thymidine. 24 Hours later, the cells were harvested and counted by liquid scintillation counting. Results for compounds nos.77, 7 and 78 are shown in figures 26A, 26B and 26C, respectively. Background counts were approximately 1% of control levels.
Results obtained for compound no. 50 in the PDGF-induced proliferation of Balb/3T3 cells (Example 32), reported in figure 28, illustrate the inhibitive properties of this compound on proliferation induced by PDGF, representing significant inhibition at concentrations as low as 2 µM. […] 50, are capable of reducing tumor cell growth by blocking oncogene-induced events.
Figure 66 reports that inventive compound no. 45 inhibited PDGF-induced murine BALB/3T3 proliferation. Procedurally, cells were rested overnight in 0.2% serum and stimulated with 25 ng/ml PDGF. Compound no. 45 was added 1 hour prior to stimulation. Cells were pulsed with ^3H-TdR 24 hours later and harvested for scintillation counting 4 hours later.
Figures 66A and 66B are a dose response and cytoxicity curves, respectively, for inhibition of proliferation in Balb/3T3 cells by inventive compound no. 58. In the assay protocol, cells were starved overnight in 0.5% serum containing medium, followed by stimulation with 20 ng/ml PDGF for 24 hours. The cells were labeled with ^3H-TdR for 4 hours and harvested and counted by scintillation. Figure 66B illustrates that inventive compound no.
Figure 68 illustrates an effect of the delayed addition of inventive compound no. 58 to Balb/3T3 proliferation in response to PDGF-BB. Cells were stimulated with PDGF (20 ng/ml) and inventive compound no. 58 added either simultaneous with PDGF (0) or at various times after addition of PDGF, up to 6 hours later. At 24 hours, the cells were pulsed with ^3H-TdR and counted by scintillation four hours later. […] 58 was added as late as 20 hours after PDGF.
Figure 69 illustrates that inventive compound no. […] In the assay protocol, cells were serum starved for 24 hours before adding either 20 ng/ml PDGF or 10% serum. The cells were pulsed with ^3HTdR 24 hours later. Inventive compound no.

[4] = system: murine thymocyte proliferation; assay: Thymocyte proliferation co-stimulated by ConA and IL-2 (tritiated thymidine); format: cell-based, Balb/C mice; conditions: Mus musculus, Thymocyte, 96 h; ConA and IL-2 (15 U/ml), 4 days
Protocol: (§1) ConA, used to activate CD3, induces T-cell proliferation and differentiation. Thymuses, obtained from normal, female Balb/C mice, were dissociated and plated into 96-well plates at a density of 2 x 10^5 cells/well. ConA (0.25 mg/ml) and IL-2 (15 U/ml) were added to the wells. The cells were incubated for 4 days at 37°C. On day 4, the cells were pulsed with tritiated thymidine and incubated for an additional 4 hours. The amount of tritiated thymidine dye incorporated by the harvested cells was determined in a liquid scintillation counter. Drug doses (shown in figs. 1A and 1B) were added two hours prior to ConA and IL-2 activation.
as §1, with “Thymuses,” for “ConA, used to activate CD3, induces T-cell proliferation and differentiation. Thymuses,”, “37 °C.” for “37°C.”, “Doses” for “Drug doses”, “26A, 26B” for “1A”, “26C)” for “1B)”
In another in vitro protocol, thymocyte proliferation was induced by sub-mitogenic doses of Con A (0.25 µg/ml) and IL-2 (20 ng/ml). Cells were stimulated for 96 hours, prior to addition of ^3H-TdR for 4 hours. The cells were harvested and incorporation of ^3H-TdR was determined.
45 on co-stimulated thymocyte proliferation. In an assay procedure, murine thymocytes were stimulated with ConA and IL-2 with 1 µM compound no. 45 added either 1 hour prior to IL-2 (-1), simultaneous with IL-2 (0) or at various times following IL-2 addition (1-92 hour). At 92 hours the thymocytes were pulsed with ^3H-TdR, harvested and counted by scintillation 4 hours later.

[5] = system: proliferative PMBC response to allogeneic stimulation; assay: Two-way mixed lymphocyte reaction; format: cell-based; conditions: Lymphocyte; figs. 2A-2C
Source text: This example illustrates therapeutic potential for various autoimmune and inflammatory diseases of the inventive compounds by comparing potency (inhibitive activity) with cytotoxicity data obtained using the following indicative assay procedures. In a mixed lymphocyte reaction assay of compounds nos. […] Compounds nos. […] 2A and 2B. Both compounds nos. […] 2C.
Compound no. […] Compound no.

[6] = system: CMV promoter activity; assay: microbe, parasite or virus in culture; format: cell-based; conditions: transformed (adenovirus) cells
Source text: This example illustrates data of proliferative activity of various inventive compounds for inducing CMV promoter activity. The CMV promoter assay measures gene transcription and translation activity wherein any active compounds will have cytotoxic activity for inhibiting cellular protein synthesis in transformed (adenovirus) cells. Compound no. […]

[7] = system: mast cell degranulation; assay: Serotonin release assay for inhibition of mast cell degranulation; format: cell-based; conditions: Concentration 50 µM
Source text: This assay provides an in vitro model for an allergy and asthma therapeutic product. […]

[8] = system: Human stromal cells; assay: Stromal cell proliferation in response to PDGF-BB; format: cell-based; conditions: 50 ng/ml PDGF-BB
Protocol: This assay is useful for predicting therapeutic activity for preventing or treating restenosis, atherosclerosis and coronary artery disease. Human stromal cells were starved in serum-free media for one day and then stimulated with 50 ng/ml PDGF-BB. Inventive compounds, at various concentrations, were added one hour prior to PDGF stimulation. PDGF and tritiated thymidine were added and the cells allowed to incubate for one day, following addition of the PDGF and thymidine. 24 Hours later, the cells were harvested and counted by liquid scintillation counting. Results for compounds nos. Background counts (i.e., starved cells) were approximately 1% of control levels. […] 30, 28, 29, 32 and 31, respectively.

CCCCCCCCCCNCC(O)CCCCCCCn1c(=O)c2c(ncn2C)n(C)c1=O (stereo not drawn) [compound 41, 1-(9-Decylamino-8-hydroxynonyl)-3,7-dimethylxanthine] was tested, and the “inhibition of direct IL-2-induced proliferation” value [1] was “inhibited direct IL-2-induced CT6 proliferation”.
CCCCCCCCCCCCCCNCC(O)CCCCCCCn1c(=O)c2c(ncn2C)n(C)c1=O (stereo not drawn) [compound 43, 1-(9-Tetradecylamino-8-hydroxynonyl)-3,7-dimethylxanthine] was tested, and the “inhibition of direct IL-2-induced proliferation” value [1] was “inhibited direct IL-2-induced CT6 proliferation”.
For Cn1cnc2c1c(=O)n(CCCCCCCCCC(O)CNCc1ccc(N)cc1)c(=O)n2C (stereo not drawn) [compound 57, 1-[11-(4-Aminobenzylamino)-10-hydroxyundecyl]-3,7-dimethylxanthine], the “inhibition of THP-1 adhesion” value [2] was “significantly inhibited THP-1 adhesion, even at low concentratations”.
CCCCCCCCNCC(O)CCCCCCCCC(=O)O (stereo not drawn) [compound 78, 11-Octylamino-10-hydroxyundecanoic acid] was tested, and the “inhibition of PDGF-induced proliferation” value [3] was “inhibit Balb/3T3 proliferation” and the pIC50 [4] was 4.91.
CCCCCCCCNCC(O)CCCCCCCCC(=O)NC (stereo not drawn) [compound 79, 11-Octylamino-10-hydroxyundecanoic acid N-methyl amide] gave a pIC50 [4] of 4.97.
CCCCCCCCNCC(O)CCCCCCCCC(=O)N(C)C (stereo not drawn) [compound 80, 11-Octylamino-10-hydroxyundecanoic acid N,N-dimethyl amide] showed a pIC50 [4] of 5.42.
With CCCNCC(O)CCCCNC(=O)CCCC(=O)NCCC (stereo not drawn) [compound no. 5, N^2-(5-hydroxy-6-(N^3-propyl)aminohexyl)-(N^1-propyl)glutaric acid] the pIC50 [5] was under 3.60 and the pIC50 [6] was under 3.30.
CCCCCCCCNCC(O)CCCCCCCCCO (stereo not drawn) [compound no. 7, 1-Octylamino-2,11-undecadiol] was tested, and the “inhibition of PDGF-induced proliferation” value [3] was “inhibit Balb/3T3 proliferation”.
For CCCNCC(O)CCCCn1c(=O)ccn(C)c1=O (stereo not drawn) [compound no. 19, 3-(5-hydroxy-6-(N-propyl)aminohexyl)-1-methyluracil], the pIC50 [6] was under 3.30 and the “% Inhibition” value [7] was “inactive”.
In the case of CCCNCC(O)CCCCn1c(=O)c(C)cn(C)c1=O (stereo not drawn) [compound no. 26, 3-(6-Propylamino-5-hydroxyhexyl)-1-methylthymine], the pIC50 [5] was under 3.60 and the pIC50 [6] was under 3.30.
Cn1cnc2c1c(=O)n(CCCCC(O)CNCCCCc1ccccc1)c(=O)n2C (stereo not drawn) [compound no. 29, 1-(5-hydroxy-6-(N-(4-phenyl)butyl)aminohexyl)-3,7-dimethylxanthine] showed a pIC50 [6] of under 4.00 and a pIC50 [8] of 4.40.
In the case of Cn1cnc2c1c(=O)n(CCCCC(O)CNCC1CCCCC1)c(=O)n2C (stereo not drawn) [compound no. 31, 1-(5-hydroxy-6-(N-cyclohexylmethyl)aminohexyl)-3,7-dimethylxanthine], the pIC50 [6] was under 4.00 and the pIC50 [8] was under 4.30.
Molecule Cn1cnc2c1c(=O)n(CCCCC(O)CNCCCCCCO)c(=O)n2C (stereo not drawn) [compound no. 32, 1-(5-hydroxy-6-(N-(6-hydroxy)hexyl)aminohexyl)-3,7-dimethylxanthine] has a pIC50 [6] of under 4.00 and a pIC50 [8] of under 4.30.
With CCCCCCCCNCC(O)CCCCCCCCCN(C)C(C)=O (stereo not drawn) [compound no. 77] the “inhibition of PDGF-induced proliferation” value [3] was “inhibit Balb/3T3 proliferation”.
